Earlier results, collected in US20060034774A1, “Galactopyrannosyltriaminetetracarboxylate as ligands for bioactivated paramagnetic metal complexes” (Kaohsiung Medical University, priority 2004, published 2006).
Read-outs that look alike come from different tables or passages of the source.

Biological target: β-galactosidase (β-gal) (Escherichia coli, UniProt P00722)
Sequence (P00722 2-1024): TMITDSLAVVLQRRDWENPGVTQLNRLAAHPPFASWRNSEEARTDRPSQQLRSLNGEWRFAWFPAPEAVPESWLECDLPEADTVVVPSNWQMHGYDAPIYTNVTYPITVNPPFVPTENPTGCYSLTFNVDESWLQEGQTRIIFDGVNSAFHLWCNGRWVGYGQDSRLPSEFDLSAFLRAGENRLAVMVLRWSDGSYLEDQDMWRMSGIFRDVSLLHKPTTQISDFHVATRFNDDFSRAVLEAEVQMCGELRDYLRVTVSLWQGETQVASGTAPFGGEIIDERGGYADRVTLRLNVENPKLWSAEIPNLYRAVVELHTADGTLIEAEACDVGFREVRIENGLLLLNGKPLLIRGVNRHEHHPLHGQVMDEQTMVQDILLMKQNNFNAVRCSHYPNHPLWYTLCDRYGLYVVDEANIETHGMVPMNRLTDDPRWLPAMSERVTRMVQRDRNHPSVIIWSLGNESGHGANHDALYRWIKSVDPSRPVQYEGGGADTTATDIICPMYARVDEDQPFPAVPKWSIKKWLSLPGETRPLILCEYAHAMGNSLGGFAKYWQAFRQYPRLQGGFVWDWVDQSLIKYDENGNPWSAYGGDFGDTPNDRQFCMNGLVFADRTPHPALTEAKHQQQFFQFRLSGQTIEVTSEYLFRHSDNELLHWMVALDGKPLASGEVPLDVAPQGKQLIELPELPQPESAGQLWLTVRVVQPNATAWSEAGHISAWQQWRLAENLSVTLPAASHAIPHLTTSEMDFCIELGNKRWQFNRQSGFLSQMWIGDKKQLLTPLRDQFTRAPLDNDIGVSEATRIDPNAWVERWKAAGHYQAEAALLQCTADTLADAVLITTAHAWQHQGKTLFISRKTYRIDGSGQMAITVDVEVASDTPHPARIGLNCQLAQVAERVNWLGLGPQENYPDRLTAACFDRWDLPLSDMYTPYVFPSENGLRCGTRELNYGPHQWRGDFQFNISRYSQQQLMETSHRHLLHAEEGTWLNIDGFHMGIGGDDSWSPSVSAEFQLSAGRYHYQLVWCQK

O=C(O)CN1CCN(CCO[C@@H]2O[C@H](CO)[C@H](O)[C@H](O)[C@H]2O)CCN(CC(=O)O)CCN(CC(=O)O)CC1 [Egad, 4,7,10-tri(aceticacid)-1-(2-β-galactopyranosylethoxy)-1,4,7,10-tetraagacyclo dodecane]
number of inner space water molecules (after hydrolysis by β-galactosidase (β-gal)): 1.2
number of inner space water molecules (before β-galactosidase): 0.7
